Assay results as given in US20120157434A1, “Antimicrobial heterocyclic compounds for treatment of bacterial infections” (CSO of MicuRx Pharmaceuticals, Inc., priority 2007, published 2012).
≈ marks a conversion by molar mass, not a printed value. Like-named read-outs stand apart in the source and are kept apart here.

Tests used:
[1] = tested on: methicillin-resistant Staphylococcus aureus (MRSA); test: MIC by agar dilution against a clinical isolate of MRSA; format: cell-based
Text: The in vitro activity of compounds of the subject invention may be assessed by standard testing procedures such as the determination of minimum inhibitory concentration (MIC) by agar dilution as described in “Approved Standard. Methods for Dilution Antimicrobial Susceptibility Tests for Bacteria that Grow Aerobically,” 3rd ed., published 1993 by the National Committee for Clinical Laboratory standards, Villanova, Pa., USA.
The in vitro MICs of test compounds may be determined by a standard agar dilution method. A stock drug solution of each analog is prepared in a preferred solvent, usually DMSO:H2O (1:3). Serial 2-fold dilutions of each sample are made using 1.0 ml aliquots of sterile distilled water. To each 1.0 ml aliquot of drug is added 9 ml of molten Mueller Hinton agar medium. The drug-supplemented agar is mixed, poured into 15×100 mm petri dishes, and allowed to solidify and dry prior to inoculation.
Vials of each of the test microorganisms are maintained frozen in the vapor phase of a liquid nitrogen freezer. Test cultures are grown overnight at 35° C. on the medium appropriate for the microorganism. Colonies are harvested with a sterile swab, and cell suspensions are prepared in Trypticase Soy broth (TSB) to equal the turbidity of a 0.5 McFarland standard. A 1:20 dilution of each suspension is made in TSB. The plates containing the drug supplemented agar are inoculated with a 0.001 ml drop of the cell suspension using a Steers replicator, yielding approximately 10^4 to 10^5 cells per spot. The plates are incubated overnight at 35° C.
Following incubation the Minimum Inhibitory Concentration (MIC μg/ml), the lowest concentration of drug that inhibits visible growth of the microorganism, is read and recorded.
Compounds of this invention can have useful activity against a variety of pathogenic microorganisms. The in vitro activity of compounds of this invention can be assessed by standard testing procedures such as the determination of minimum inhibitory concentration (MIC) by agar dilution as described in “Approved Standard. Methods for Dilution Antimicrobial Susceptibility Tests for Bacteria That Grow Aerobically”, 3rd. ed., published 1993 by the National Committee for Clinical Laboratory Standards, Villanova, Pa., USA. Minimum inhibitory concentration (MIC) refers to the lowest concentration of drug (μg/mL) that inhibits visible growth of the organism. Lower MIC values indicate a higher antibacterial activity. […] The activity of compounds of present invention against a clinical isolate of methicillin-resistant Staphylococcus aureus (MRSA; from the Massachusetts General Hospital, USA) is exemplified by the MIC data of Table 1.

[2] = biological target: T1, Human monoamine oxidase (MOA) A type enzyme (Homo sapiens, UniProt P21397); test: MAO A inhibition, MAO-Glo assay kit (Promega); format: biochemical; details: luminogenic substrate; for IC50: read-out: MAO-I IC50, μg/mL (converted)
T1 sequence (P21397 1-527): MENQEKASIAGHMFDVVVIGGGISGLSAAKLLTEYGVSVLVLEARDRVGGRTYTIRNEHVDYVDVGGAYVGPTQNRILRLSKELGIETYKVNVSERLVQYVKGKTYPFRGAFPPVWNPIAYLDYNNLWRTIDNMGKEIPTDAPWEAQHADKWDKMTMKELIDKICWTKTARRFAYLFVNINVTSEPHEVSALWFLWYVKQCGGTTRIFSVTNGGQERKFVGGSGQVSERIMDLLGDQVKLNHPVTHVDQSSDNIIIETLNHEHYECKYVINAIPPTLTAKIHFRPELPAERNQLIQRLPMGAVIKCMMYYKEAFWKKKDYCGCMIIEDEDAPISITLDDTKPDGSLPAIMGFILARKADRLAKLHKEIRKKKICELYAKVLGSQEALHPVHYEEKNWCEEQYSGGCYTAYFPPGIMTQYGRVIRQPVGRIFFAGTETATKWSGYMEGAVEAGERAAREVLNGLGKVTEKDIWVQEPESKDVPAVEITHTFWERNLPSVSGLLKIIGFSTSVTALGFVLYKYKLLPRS
Protocol: Human monoamine oxidase (MOA) A type enzyme inhibition activity for select compounds was measured using a commercial MAO assay kit MAO-Glo™ from Promega Co. (USA). The assay was performed as described in the company's technical bulletin MAOGlo™ Assay”. The protocol involves an incubation of the MAO A enzyme with a luminogenic MAO substrate to produce an enzymatic product which is converted to luciferin by a coupled reaction. The released luciferin undergoes further transformation to generate light that is detected and measured. The amount of the light is directly proportional to the activity of MAO. Percent inhibition at several concentrations is established relative to the uninhibited control rate, and the IC50 values are calculated. […] The MAO inhibition data for select compound of this invention are illustrated in the Table 1.

[3] = Staphylococcus aureus, read-out: MRSA, MIC, μg/mL
[4] = clinical isolate of methicillin-resistant Staphylococcus aureus (Massachusetts General Hospital, USA), agar dilution, read-out: MRSA, MIC

| MIC [1, 4] [µg/mL] | IC50 [2] [µM] | MAO-I IC50 [2] [µg/mL] | Structure (SMILES) | MIC [1, 3] [µg/mL] |
| --- | --- | --- | --- | --- |
| – | – | – | CC(=O)NC[C@@H]1OC(=O)N2c3ccc(-c4ccc(N5CCOC5=O)nc4)cc3C[C@@H]12 [Example 3, N-(((1S,9aS)-3-oxo-7-(6-(2-oxooxazolidin-3-yl)pyridin-3-yl)-1,3,9,9a-tetrahydrooxazolo[3,4-a]indol-1-yl)methyl)acetamide] | 0.25 (≈ 0.612 µM) |
| 0.5 (≈ 1.16 µM) | > 233 | – | CC(=O)NC[C@@H]1OC(=O)N2c3ccc(-c4ccc([C@@]5(C#N)[C@@H]6CNC[C@@H]65)nc4)cc3C[C@@H]12 [Example 18, N-(((1S,9aS)-7-(6-((1R,5S,6s)-6-cyano-3-azabicyclo[3.1.0]hexan-6-yl)pyridin-3-yl)-3-oxo-1,3,9,9a-tetrahydrooxazolo[3,4-a]indol-1-yl)methyl)acetamide] | – |
| 2 (≈ 5.93 µM) | – | 5 | CC(=O)NC[C@H]1CN(c2ccc(N3CCOCC3)c(F)c2)C(=O)O1 [Linezolid, linezolid, reference compound] | – |
| – | – | – | CC(=O)NC[C@@H]1OC(=O)N2c3ccc(-c4ccc(C5=NOC(CO)C5)nc4)cc3C[C@@H]12 (stereo partly drawn) [Example 8, N-(((1S,9aS)-7-(6-(5-(hydroxymethyl)-4,5-dihydroisoxazol-3-yl)pyridin-3-yl)-3-oxo-1,3,9,9a-tetrahydrooxazolo[3,4-a]indol-1-yl)methyl)acetamide] | 1 (≈ 2.37 µM) |
| 0.5 (≈ 1.37 µM) | – | – | CC(=O)NC[C@@H]1OC(=O)N2c3ccc(N4Cc5cccnc5C4)cc3C[C@@H]12 [Example 6, N-(((1S,9aS)-3-oxo-7-(5H-pyrrolo[3,4-b]pyridin-6(7H)-yl)-1,3,9,9a-tetrahydrooxazolo[3,4-a]indol-1-yl)methyl)acetamide] | – |
| – | – | – | CC(=O)NC[C@@H]1OC(=O)N2c3ccc(-c4ccc(-c5nnn(C)n5)nc4)cc3C[C@@H]12 [Example 1, N-(((1S,9aS)-7-(6-(2-methyl-2H-tetrazol-5-yl)pyridin-3-yl)-3-oxo-1,3,9,9a-tetrahydrooxazolo[3,4-a]indol-1-yl)methyl)acetamide] | 0.5 (≈ 1.23 µM) |
| 0.5 (≈ 1.23 µM) | – | – | CC(=O)NC[C@@H]1OC(=O)N2c3ccc(-c4ccc(-c5nnnn5C)nc4)cc3C[C@@H]12 [Example 2, N-(((1S,9aS)-7-(6-(1-methyl-1H-tetrazol-5-yl)pyridin-3-yl)-3-oxo-1,3,9,9a-tetrahydrooxazolo[3,4-a]indol-1-yl)methyl)acetamide] | – |
| 0.5 (≈ 1.28 µM) | 353 | – | CC(=O)NC[C@@H]1OC(=O)N2c3ccc(-c4ccc(-n5cnnn5)nc4)cc3C[C@@H]12 [Example 4, N-(((1S,9aS)-7-(6-(1H-tetrazol-1-yl)pyridin-3-yl)-3-oxo-1,3,9,9a-tetrahydrooxazolo[3,4-a]indol-1-yl)methyl)acetamide] | – |

| Structure (SMILES) | MIC [1, 4] [µg/mL] | IC50 [2] [µM] | MAO-I IC50 [2] [µg/mL] | MIC [1, 3] [µg/mL] |
| --- | --- | --- | --- | --- |
| CC(=O)NC[C@@H]1OC(=O)N2c3ccc(-c4ccc(C(=O)Cn5ccnc5)nc4)cc3C[C@@H]12 [Example 11, N-(((1S,9aS)-7-(6-(2-(1H-imidazol-1-yl)acetyl)pyridin-3-yl)-3-oxo-1,3,9,9a-tetrahydrooxazolo[3,4-a]indol-1-yl)methyl)acetamide] | – | > 232 | – | 1 (≈ 2.32 µM) |
